{"source": "patent US9463180B2", "about": "“Treatment of molluscum contagiosum” (QUADEX PHARMACEUTICALS, LLC, priority 2013, dated 2016)", "origin": "cited, not measured here", "tested_on": "molluscum contagiosum", "settings": "small studies; applied 3 times per week, left on skin 6 to 10 hours", "data": [{"smiles": "CC(C)Cn1cnc2c(N)nc3ccccc3c21", "note": "[Imiquimod]", "values": [{"measurement": "success rate", "value": "about 80%"}]}]}
